These results are taken from US11147272B2, “Pyridone compounds and agricultural and horticultural fungicides comprising the same as active ingredients” (MITSUI CHEMICALS AGRO, INC., priority 2017, dated 2021).

The test system of test [1] is Phytophthora infestans. Put plainly: whole plant or invertebrate. The format is in vivo. As to conditions: Late blight on tomato; control value class.
For test [2], the system named is Colletotrichum orbiculare. Description: Test Example H: Anthracnose on cucumber. The note with it: Anthracnose on cucumber; 250 ppm spray, 6 to 10 days after inoculation.
The subject of test [3] is Magnaporthe grisea. Put plainly: whole plant or invertebrate. Format: in vivo. The note with it: Blast on rice; control value class.
Test [4] deals with Plasmopara viticola. Description: Test Example G: Downy mildew on vine. The note with it: Downy mildew on vine; 250 ppm spray, 7 to 10 days after inoculation.
Experimental: Seeds of a test plant (grape variety: Neomuscat) were planted and cultivated until three to four first leaves appeared. In the test, the inventive compounds were dissolved into dimethyl sulfoxide-methanol mixture solution (volume ratio: 9/1), and the resultant solutions were diluted with well water to a concentration of 250 ppm to obtain the drug solutions. The drug solutions were sprayed to the test plant (2.5 ml/pot). After the drug solutions dried, a zoosporangia suspension (1-2×10^4 zoosporangia/ml) of Plasmopara viticola was inoculated to the plant by spraying. After the inoculation, the plant was kept in a mist chamber at room temperature of 20° C. for about 24 hours to promote the onset of disease. The degrees of disease development were investigated 7 to 10 days after the inoculation, and the effectiveness of the drug solutions was evaluated.
In Test Examples described above, the degrees of disease development were evaluated in increments of 0.05 from 0 (as no incidence of disease) to 3 (as the degree of disease development in an untreated plant group). Further, control values were calculated using the following equation based on the degree of disease development.
n=Degree of disease development in each treated group
Test [5] deals with Botrytis cinerea. Description: Test Example B: Gray mold on tomato. As to conditions: Gray mold on tomato; control value class.
In test [6] the test system is Puccinia recondita. Put plainly: Test Example E: Brown rust on wheat. Format: in vivo. As to conditions: Brown rust on wheat; control value class.
Test [7] deals with Alternaia brassicicola. Put plainly: Test Example C: Alternaria sooty spot on cabbage. The note with it: Alternaria sooty spot on cabbage; control value class. The format is in vivo. An excerpt:
Seeds of a test plant (cabbage variety: Shikidori) were planted and cultivated until the cotyledons extended.
<Control Value> Control value=100{1−(n/3)}

Test [8] deals with Blumeria graminis f. sp. hordei. Description: Test Example D: Powdery mildew on barley. The note with it: Powdery mildew on barley; control value class.

On to `CCCCCc1cc(Br)c(=O)n(CC)c1-c1ccc(F)cc1Cl` [compound 210], for which the “Test F control value” in test [1] is on record as “L (50% or less control value)”. Further, the “Test H control value” in test [2] is “H (more than 50% control value)”. Further, in test [3], the “Test A control value” is “H (more than 50% control value)”. In test [4], the “Test G control value” is listed as “L (50% or less control value)”. For the same compound, the “Test B control value” in test [5] is “H (more than 50% control value)”. Also, the “Test E control value” in test [6] is on record as “H (more than 50% control value)”. Further, in test [7], the “Test C control value” is on record as “H (more than 50% control value)”. Besides, the “Test D control value” in test [8] was “H (more than 50% control value)”.
For `CCn1c(-c2ccc(F)cc2)c(C(O)C(C)C)cc(Cl)c1=O` (stereo not shown) [compound 211], the “Test F control value” in test [1] is “L (50% or less control value)”. Moreover, the “Test H control value” in test [2] is “L (50% or less control value)”. In addition, the “Test A control value” in test [3] is “L (50% or less control value)”. Besides, the “Test G control value” in test [4] is given as “L (50% or less control value)”. Besides, in test [5], the “Test B control value” is listed as “H (more than 50% control value)”. Also, the “Test E control value” in test [6] was “H (more than 50% control value)”. Also, in test [7], the “Test C control value” is on record as “H (more than 50% control value)”. Also, the “Test D control value” in test [8] was “L (50% or less control value)”.
For the compound `CCn1c(-c2ccc(F)cc2)c(C(=O)C(C)C)cc(Cl)c1=O` [compound 212], in test [1], the “Test F control value” is on record as “L (50% or less control value)”. The “Test H control value” in test [2] is reported as “L (50% or less control value)”. Moreover, in test [3], the “Test A control value” is recorded as “L (50% or less control value)”. The “Test G control value” in test [4] is “L (50% or less control value)”. In addition, the “Test B control value” in test [5] is recorded as “H (more than 50% control value)”. For the same compound, in test [6], the “Test E control value” is given as “H (more than 50% control value)”. For the same compound, the “Test C control value” in test [7] is given as “H (more than 50% control value)”. Also, in test [8], the “Test D control value” was “H (more than 50% control value)”.
As to `CCn1c(-c2ccc(F)cc2)c(C(C)(O)C(C)C)cc(Cl)c1=O` (stereo not shown) [compound 213], the “Test F control value” in test [1] is listed as “L (50% or less control value)”. Also, the “Test H control value” in test [2] is “H (more than 50% control value)”. Also, the “Test A control value” in test [3] is “H (more than 50% control value)”. Besides, the “Test G control value” in test [4] is “H (more than 50% control value)”. In addition, the “Test B control value” in test [5] is listed as “H (more than 50% control value)”. For the same compound, in test [6], the “Test E control value” is listed as “H (more than 50% control value)”. The “Test C control value” in test [7] is listed as “H (more than 50% control value)”. In test [8], the “Test D control value” was “H (more than 50% control value)”.
For the compound `CCn1c(-c2ccc(F)cc2)c(C(C)(OC)C(C)C)cc(Cl)c1=O` (stereo not shown) [compound 214], the “Test F control value” in test [1] is “L (50% or less control value)”. Also, in test [2], the “Test H control value” was “L (50% or less control value)”. The “Test A control value” in test [3] is “H (more than 50% control value)”. For the same compound, the “Test G control value” in test [4] was “L (50% or less control value)”. For the same compound, the “Test B control value” in test [5] is given as “H (more than 50% control value)”. Further, the “Test E control value” in test [6] is given as “H (more than 50% control value)”. Further, the “Test C control value” in test [7] is given as “H (more than 50% control value)”. Moreover, in test [8], the “Test D control value” was “H (more than 50% control value)”.
Consider `CCOC(C)(c1cc(Cl)c(=O)n(CC)c1-c1ccc(F)cc1)C(C)C` (stereo not shown) [compound 215], for which the “Test F control value” in test [1] is reported as “L (50% or less control value)”. Further, the “Test H control value” in test [2] is recorded as “L (50% or less control value)”. Further, the “Test A control value” in test [3] was “L (50% or less control value)”. The “Test G control value” in test [4] is given as “L (50% or less control value)”. Moreover, in test [5], the “Test B control value” was “L (50% or less control value)”. Besides, the “Test E control value” in test [6] was “L (50% or less control value)”. Moreover, the “Test C control value” in test [7] is given as “L (50% or less control value)”. The “Test D control value” in test [8] was “H (more than 50% control value)”.
On to `CCCOC(C)(c1cc(Cl)c(=O)n(CC)c1-c1ccc(F)cc1)C(C)C` (stereo not shown) [compound 216], for which the “Test F control value” in test [1] is given as “L (50% or less control value)”. Further, the “Test H control value” in test [2] was “L (50% or less control value)”. Further, the “Test A control value” in test [3] is “L (50% or less control value)”. In addition, the “Test G control value” in test [4] was “L (50% or less control value)”. For the same compound, the “Test B control value” in test [5] is “L (50% or less control value)”. The “Test E control value” in test [6] is “L (50% or less control value)”. Besides, the “Test C control value” in test [7] is recorded as “L (50% or less control value)”. Also, the “Test D control value” in test [8] is reported as “H (more than 50% control value)”.
Turning to `CCn1c(-c2ccc(F)cc2)c(C(C)(F)C(C)C)cc(Cl)c1=O` (stereo not shown) [compound 217], in test [1], the “Test F control value” is listed as “L (50% or less control value)”. For the same compound, the “Test H control value” in test [2] is given as “H (more than 50% control value)”. For the same compound, in test [3], the “Test A control value” is reported as “H (more than 50% control value)”. Moreover, the “Test G control value” in test [4] is on record as “L (50% or less control value)”. The “Test B control value” in test [5] was “H (more than 50% control value)”. For the same compound, the “Test E control value” in test [6] is reported as “H (more than 50% control value)”. Moreover, the “Test C control value” in test [7] was “H (more than 50% control value)”. Further, the “Test D control value” in test [8] is on record as “H (more than 50% control value)”.
In the case of `CCOc1cc(F)c(-c2c(C(=O)C(C)C)cc(Cl)c(=O)n2CC)c(F)c1` [compound 218], in test [1], the “Test F control value” is on record as “L (50% or less control value)”. For the same compound, in test [2], the “Test H control value” was “H (more than 50% control value)”. Further, the “Test A control value” in test [3] was “H (more than 50% control value)”. The “Test G control value” in test [4] is listed as “H (more than 50% control value)”. The “Test B control value” in test [5] is recorded as “H (more than 50% control value)”. The “Test E control value” in test [6] is recorded as “H (more than 50% control value)”. The “Test C control value” in test [7] was “H (more than 50% control value)”. The “Test D control value” in test [8] is reported as “H (more than 50% control value)”.
With `CCn1c(-c2ccc(F)cc2Cl)c(C2CCCC2)ccc1=O` [compound 219], the “Test F control value” in test [1] was “L (50% or less control value)”. Moreover, the “Test H control value” in test [2] is reported as “L (50% or less control value)”. The “Test A control value” in test [3] is given as “H (more than 50% control value)”. Further, the “Test G control value” in test [4] is “L (50% or less control value)”. Besides, the “Test B control value” in test [5] is reported as “H (more than 50% control value)”. Moreover, the “Test E control value” in test [6] is given as “H (more than 50% control value)”. In addition, in test [7], the “Test C control value” is reported as “H (more than 50% control value)”. Moreover, the “Test D control value” in test [8] was “H (more than 50% control value)”.
Take `CCn1c(-c2ccc(F)cc2Cl)c(C2CCCC2)cc(Cl)c1=O` [compound 220]: in test [1], the “Test F control value” is given as “L (50% or less control value)”. Besides, the “Test H control value” in test [2] is listed as “H (more than 50% control value)”. In addition, in test [3], the “Test A control value” is recorded as “H (more than 50% control value)”. Also, the “Test G control value” in test [4] was “H (more than 50% control value)”. Besides, in test [5], the “Test B control value” is reported as “H (more than 50% control value)”. Moreover, the “Test E control value” in test [6] is given as “H (more than 50% control value)”. Further, in test [7], the “Test C control value” was “H (more than 50% control value)”. Further, the “Test D control value” in test [8] was “H (more than 50% control value)”.
On to `CCn1c(-c2ccc(F)cc2Cl)c(C2CCCC2)cc(Br)c1=O` [compound 221], for which, in test [1], the “Test F control value” is recorded as “L (50% or less control value)”. Also, the “Test H control value” in test [2] is given as “L (50% or less control value)”. Besides, the “Test A control value” in test [3] is on record as “H (more than 50% control value)”. The “Test G control value” in test [4] was “L (50% or less control value)”. Also, the “Test B control value” in test [5] is listed as “H (more than 50% control value)”. For the same compound, the “Test E control value” in test [6] is given as “H (more than 50% control value)”. Besides, the “Test C control value” in test [7] was “H (more than 50% control value)”. For the same compound, the “Test D control value” in test [8] is recorded as “H (more than 50% control value)”.
For the compound `CCn1c(-c2ccc(OC)cc2)c(C(=O)C(C)C)cc(Cl)c1=O` [compound 222], the “Test F control value” in test [1] is given as “L (50% or less control value)”. Besides, in test [2], the “Test H control value” is listed as “L (50% or less control value)”. Moreover, the “Test A control value” in test [3] is given as “L (50% or less control value)”. The “Test G control value” in test [4] is given as “L (50% or less control value)”. The “Test B control value” in test [5] was “H (more than 50% control value)”. In addition, in test [6], the “Test E control value” is on record as “H (more than 50% control value)”. Also, the “Test C control value” in test [7] is on record as “H (more than 50% control value)”. Besides, the “Test D control value” in test [8] is “H (more than 50% control value)”.
`CCn1c(-c2ccc(OC)cc2)c(C(C)(O)C(C)C)cc(Cl)c1=O` (stereo not shown) [compound 223]: in test [1], the “Test F control value” was “L (50% or less control value)”. In addition, the “Test H control value” in test [2] was “L (50% or less control value)”. Further, in test [3], the “Test A control value” is given as “L (50% or less control value)”. Moreover, the “Test G control value” in test [4] is “L (50% or less control value)”. The “Test B control value” in test [5] is reported as “H (more than 50% control value)”. In addition, in test [6], the “Test E control value” is recorded as “H (more than 50% control value)”. Also, in test [7], the “Test C control value” was “H (more than 50% control value)”. For the same compound, in test [8], the “Test D control value” is “L (50% or less control value)”.
